Test results from PMC5218480 (PLoS ONE, 2017).

Test system: MV-4-11 cells
Experiment: Gene expression microarray analysis (Affymetrix PrimeView) and GSEA
Type: cell-based, human
Parameters: RFU PODN (11730768_x_at) / Fold change /veh PODN (11730768_x_at) / RFU LINC00158 (11744669_a_at) / Fold change /veh LINC00158 (11744669_a_at) / RFU DUSP10 (11751237_a_at) / Fold change /veh DUSP10 (11751237_a_at) / RFU ID3 (11757404_x_at) / Fold change /veh ID3 (11757404_x_at) / RFU PLEKHG5 (11737974_s_at) / Fold change /veh PLEKHG5 (11737974_s_at) / RFU LRRC4B (11730491_at) / Fold change /veh LRRC4B (11730491_at) / RFU GIMAP4 (11747438_a_at) / Fold change /veh GIMAP4 (11747438_a_at) / RFU KRT8 (11758183_x_at) / Fold change /veh KRT8 (11758183_x_at) / RFU CNN1 (11734310_a_at) / Fold change /veh CNN1 (11734310_a_at) / RFU VPS37D (11726825_at) / Fold change /veh VPS37D (11726825_at) / RFU C10orf10 (11716522_x_at) / Fold change /veh C10orf10 (11716522_x_at) / RFU KIR2DL2 /// KIR2DL4 /// KIR2DL5A /// KIR2DL5B /// KIR2DS1 /// KIR2DS2 /// KIR2DS3 /// KIR2DS4 /// KIR3DL3 /// KIR3DL3 /// KIR3DS1 (11738374_at) / Fold change /veh KIR2DL2 /// KIR2DL4 /// KIR2DL5A /// KIR2DL5B /// KIR2DS1 /// KIR2DS2 /// KIR2DS3 /// KIR2DS4 /// KIR3DL3 /// KIR3DL3 /// KIR3DS1 (11738374_at) / RFU C1QL1 (11718748_at) / Fold change /veh C1QL1 (11718748_at) / RFU TMPRSS4 (11747572_a_at) / Fold change /veh TMPRSS4 (11747572_a_at) / RFU HAMP (11756126_x_at) / Fold change /veh HAMP (11756126_x_at) / RFU RNFT2 (11725882_a_at) / Fold change /veh RNFT2 (11725882_a_at) / RFU NR4A2 (11747474_a_at) / Fold change /veh NR4A2 (11747474_a_at) / RFU ABCC12 (11746883_a_at) / Fold change /veh ABCC12 (11746883_a_at) / RFU TMEM136 (11760407_x_at) / Fold change /veh TMEM136 (11760407_x_at) / RFU CLDN22 /// WWC2 (11732394_at) / Fold change /veh CLDN22 /// WWC2 (11732394_at) / RFU HLA-DPB1 (11760878_x_at) / Fold change /veh HLA-DPB1 (11760878_x_at) / RFU SPINT1 (11716480_a_at) / Fold change /veh SPINT1 (11716480_a_at) / RFU GAP43 (11754022_s_at) / Fold change /veh GAP43 (11754022_s_at) / RFU A4GNT (11735810_at) / Fold change /veh A4GNT (11735810_at) / RFU PRB3 (11715151_x_at) / Fold change /veh PRB3 (11715151_x_at) / RFU TUBB4B (11761932_at) / Fold change /veh TUBB4B (11761932_at) / RFU CAPN14 (11732068_a_at) / Fold change /veh CAPN14 (11732068_a_at) / RFU TMCC2 (11721928_a_at) / Fold change /veh TMCC2 (11721928_a_at) / RFU IRGQ (11745062_a_at) / Fold change /veh IRGQ (11745062_a_at) / RFU FAM174B (11720279_a_at) / Fold change /veh FAM174B (11720279_a_at) / RFU TMPRSS4 (11748680_a_at) / Fold change /veh TMPRSS4 (11748680_a_at) / RFU FAM212B (11763350_a_at) / Fold change /veh FAM212B (11763350_a_at) / RFU PLEKHG5 (11743358_a_at) / Fold change /veh PLEKHG5 (11743358_a_at) / RFU ZSCAN30 (11745921_a_at) / Fold change /veh ZSCAN30 (11745921_a_at) / RFU CMKLR1 (11741424_a_at) / Fold change /veh CMKLR1 (11741424_a_at) / RFU LOC101060620 /// MAPK8IP1 (11723275_at) / Fold change /veh LOC101060620 /// MAPK8IP1 (11723275_at) / RFU SPTSSB (11747773_x_at) / Fold change /veh SPTSSB (11747773_x_at) / RFU PRSS12 (11739890_at) / Fold change /veh PRSS12 (11739890_at) / RFU BIN1 (11741810_x_at) / Fold change /veh BIN1 (11741810_x_at) / RFU WNT11 (11732464_a_at) / Fold change /veh WNT11 (11732464_a_at) / RFU C10orf10 (11716521_a_at) / Fold change /veh C10orf10 (11716521_a_at) / RFU C5orf56 (11738089_at) / Fold change /veh C5orf56 (11738089_at) / RFU CYB561 (11721691_x_at) / Fold change /veh CYB561 (11721691_x_at) / RFU ANKRD19P (11752326_a_at) / Fold change /veh ANKRD19P (11752326_a_at) / RFU OR2T12 /// OR2T33 /// OR2T8 (11738714_s_at) / Fold change /veh OR2T12 /// OR2T33 /// OR2T8 (11738714_s_at) / RFU VCAN (11748164_a_at) / Fold change /veh VCAN (11748164_a_at) / RFU JSRP1 (11732532_at) / Fold change /veh JSRP1 (11732532_at) / RFU KRTAP10-11 (11738290_x_at) / Fold change /veh KRTAP10-11 (11738290_x_at) / RFU MYO3A (11730013_a_at) / Fold change /veh MYO3A (11730013_a_at) / RFU EBF3 (11725865_a_at) / Fold change /veh EBF3 (11725865_a_at) / RFU CAMK2N1 (11719241_x_at) / Fold change /veh CAMK2N1 (11719241_x_at) / RFU C5orf56 (11738088_a_at) / Fold change /veh C5orf56 (11738088_a_at) / RFU OLFML3 (11715873_a_at) / Fold change /veh OLFML3 (11715873_a_at) / RFU LOC100653217 /// NTM (11731650_a_at) / Fold change /veh LOC100653217 /// NTM (11731650_a_at) / RFU MAPK11 (11762145_a_at) / Fold change /veh MAPK11 (11762145_a_at) / RFU FIZ1 (11724087_x_at) / Fold change /veh FIZ1 (11724087_x_at) / RFU OASL (11726364_x_at) / Fold change /veh OASL (11726364_x_at) / RFU SOX15 (11748057_x_at) / Fold change /veh SOX15 (11748057_x_at) / RFU CD79A (11719716_a_at) / Fold change /veh CD79A (11719716_a_at) / RFU HIST1H1D (11736915_at) / Fold change /veh HIST1H1D (11736915_at) / RFU CASKIN2 (11723855_a_at) / Fold change /veh CASKIN2 (11723855_a_at) / RFU LOC730098 (11760151_x_at) / Fold change /veh LOC730098 (11760151_x_at) / RFU OR4N2 (11742367_at) / Fold change /veh OR4N2 (11742367_at) / RFU PRRT2 (11749266_a_at) / Fold change /veh PRRT2 (11749266_a_at) / RFU SNX32 (11753110_a_at) / Fold change /veh SNX32 (11753110_a_at) / RFU CDHR5 (11726645_a_at) / Fold change /veh CDHR5 (11726645_a_at) / RFU RCAN1 (11760418_a_at) / Fold change /veh RCAN1 (11760418_a_at) / RFU FAM167A (11723789_a_at) / Fold change /veh FAM167A (11723789_a_at) / RFU FAM26E (11764081_at) / Fold change /veh FAM26E (11764081_at) / RFU ISYNA1 (11749810_s_at) / Fold change /veh ISYNA1 (11749810_s_at) / RFU ACY1 (11761880_at) / Fold change /veh ACY1 (11761880_at) / RFU 11764098_at / Fold change /veh 11764098_at / RFU SAMD14 (11745864_x_at) / Fold change /veh SAMD14 (11745864_x_at) / RFU NPB (11741838_a_at) / Fold change /veh NPB (11741838_a_at) / RFU TMPRSS6 (11731388_a_at) / Fold change /veh TMPRSS6 (11731388_a_at) / RFU KRTAP10-2 (11738614_at) / Fold change /veh KRTAP10-2 (11738614_at) / RFU ARHGAP8 /// PRR5-ARHGAP8 (11727945_x_at) / Fold change /veh ARHGAP8 /// PRR5-ARHGAP8 (11727945_x_at) / RFU KRTAP5-7 /// NADSYN1 (11734609_at) / Fold change /veh KRTAP5-7 /// NADSYN1 (11734609_at) / RFU RASL12 (11751679_a_at) / Fold change /veh RASL12 (11751679_a_at) / RFU CDKN2B (11736163_a_at) / Fold change /veh CDKN2B (11736163_a_at) / RFU PRF1 (11729649_at) / Fold change /veh PRF1 (11729649_at) / RFU, ZNF638 /// ZNF638-IT1 / Fold change vs veh, ZNF638 /// ZNF638-IT1 / RFU, PANK3 / Fold change vs veh, PANK3 / RFU, SH3YL1 / Fold change vs veh, SH3YL1 / RFU, ZEB2 / Fold change vs veh, ZEB2 / RFU, NRIP1 / Fold change vs veh, NRIP1 / RFU, PTTG1IP / Fold change vs veh, PTTG1IP / RFU, CAPN2 / Fold change vs veh, CAPN2 / RFU, MED14 / Fold change vs veh, MED14 / RFU, SNORA58 / Fold change vs veh, SNORA58 / RFU, C1orf63 / Fold change vs veh, C1orf63 / RFU, LRRFIP1 / Fold change vs veh, LRRFIP1 / RFU, NDUFAF7 / Fold change vs veh, NDUFAF7 / RFU, SLC12A2 / Fold change vs veh, SLC12A2 / RFU, IBTK / Fold change vs veh, IBTK / RFU, ESF1 / Fold change vs veh, ESF1 / Fold change vs veh, TMEM50B / RFU, TAOK1 / Fold change vs veh, TAOK1 / RFU, ACBD3 / Fold change vs veh, ACBD3 / RFU, TMA16 / Fold change vs veh, TMA16 / RFU, RWDD3 / Fold change vs veh, RWDD3 / RFU, BCAT1 / Fold change vs veh, BCAT1 / RFU, EDEM3 / Fold change vs veh, EDEM3 / RFU, TMEM33 / Fold change vs veh, TMEM33 / RFU, WDR75 / Fold change vs veh, WDR75 / RFU, AHCTF1 / Fold change vs veh, AHCTF1 / RFU, TFRC / Fold change vs veh, TFRC / RFU, ZDHHC17 / Fold change vs veh, ZDHHC17 / RFU, NOM1 / Fold change vs veh, NOM1 / RFU, ARL8B / Fold change vs veh, ARL8B / RFU, ZBTB11 / Fold change vs veh, ZBTB11 / RFU, TAMM41 / Fold change vs veh, TAMM41 / RFU, KIAA1704 /// LOC100996395 / Fold change vs veh, KIAA1704 /// LOC100996395 / RFU, ING1 / Fold change vs veh, ING1 / RFU, TRMT61B / Fold change vs veh, TRMT61B / RFU, FUBP3 / Fold change vs veh, FUBP3 / RFU, TP53 / Fold change vs veh, TP53 / RFU, TNKS2 / Fold change vs veh, TNKS2 / RFU, ZFP14 / Fold change vs veh, ZFP14 / RFU, ACTR2 / Fold change vs veh, ACTR2 / RFU, PPP3R1 / Fold change vs veh, PPP3R1 / RFU, PIK3R1 / Fold change vs veh, PIK3R1 / RFU, HNRNPA1 / Fold change vs veh, HNRNPA1 / RFU, RNF170 / Fold change vs veh, RNF170 / RFU, ZNF28 / Fold change vs veh, ZNF28 / RFU, RNGTT / Fold change vs veh, RNGTT / RFU, OGT / Fold change vs veh, OGT / RFU, BRD1 / Fold change vs veh, BRD1 / RFU, MARS / Fold change vs veh, MARS / RFU, ZNF655 / Fold change vs veh, ZNF655 / RFU, FAHD1 / Fold change vs veh, FAHD1 / RFU, BDP1 / Fold change vs veh, BDP1 / RFU, LRRCC1 / Fold change vs veh, LRRCC1 / RFU, ARID1A / Fold change vs veh, ARID1A / RFU, ZNF146 / Fold change vs veh, ZNF146 / RFU, ZNF330 / Fold change vs veh, ZNF330 / RFU, GPN3 / Fold change vs veh, GPN3 / RFU, C9orf123 / Fold change vs veh, C9orf123 / RFU, N4BP2L2 / Fold change vs veh, N4BP2L2 / RFU, ARFIP1 / Fold change vs veh, ARFIP1 / RFU, FAM179B / Fold change vs veh, FAM179B / RFU, BCL10 / Fold change vs veh, BCL10 / RFU, UHRF1BP1L / Fold change vs veh, UHRF1BP1L / RFU, BET1 / Fold change vs veh, BET1 / RFU, CNOT2 / Fold change vs veh, CNOT2 / RFU, ZNF268 / Fold change vs veh, ZNF268 / Fold change vs veh, ZNF507 / RFU, DGCR2 / Fold change vs veh, DGCR2 / RFU, WDSUB1 / Fold change vs veh, WDSUB1 / Fold change vs veh, HSP90B1 /// MIR3652 / RFU, ADSS / Fold change vs veh, ADSS / RFU, GK / Fold change vs veh, GK / RFU, ZNF148 / Fold change vs veh, ZNF148 / RFU, TAF9 / Fold change vs veh, TAF9 / RFU, SLC1A5 / Fold change vs veh, SLC1A5 / RFU, SLMO2 / Fold change vs veh, SLMO2 / RFU, ABCC4 / Fold change vs veh, ABCC4 / RFU, LOC101060439 /// RAP1B / Fold change vs veh, LOC101060439 /// RAP1B / RFU, RFX7 / Fold change vs veh, RFX7 / RFU, GTPBP10 / Fold change vs veh, GTPBP10 / RFU, CNEP1R1 / Fold change vs veh, CNEP1R1 / RFU, BIVM-ERCC5 /// ERCC5 / Fold change vs veh, BIVM-ERCC5 /// ERCC5 / RFU, ILF3 / Fold change vs veh, ILF3 / RFU 11762660_at / Fold change /veh 11762660_at / RFU VCAN (11757783_s_at) / Fold change /veh VCAN (11757783_s_at) / RFU DDX43 (11728927_at) / Fold change /veh DDX43 (11728927_at) / RFU KRT8 (11758188_x_at) / Fold change /veh KRT8 (11758188_x_at) / RFU NKD1 (11759106_at) / Fold change /veh NKD1 (11759106_at) / RFU SRD5A1 (11742802_a_at) / Fold change /veh SRD5A1 (11742802_a_at) / RFU TPSAB1 /// TPSB2 (11721975_s_at) / Fold change /veh TPSAB1 /// TPSB2 (11721975_s_at) / RFU GSTM3 (11746129_a_at) / Fold change /veh GSTM3 (11746129_a_at) / RFU IL23R (11737362_x_at) / Fold change /veh IL23R (11737362_x_at) / RFU TMEM51 (11727254_a_at) / Fold change /veh TMEM51 (11727254_a_at) / RFU PIWIL2 (11732686_x_at) / Fold change /veh PIWIL2 (11732686_x_at) / RFU ORM1 (11744905_x_at) / Fold change /veh ORM1 (11744905_x_at) / RFU CCDC152 (11743942_at) / Fold change /veh CCDC152 (11743942_at) / RFU ECM1 (11717891_a_at) / Fold change /veh ECM1 (11717891_a_at) / RFU IL23R (11748794_a_at) / Fold change /veh IL23R (11748794_a_at) / RFU TNFAIP8L3 (11732012_x_at) / Fold change /veh TNFAIP8L3 (11732012_x_at) / RFU MBOAT4 (11741988_at) / Fold change /veh MBOAT4 (11741988_at) / RFU 11764193_at / Fold change /veh 11764193_at / RFU TMEM53 (11763286_at) / Fold change /veh TMEM53 (11763286_at) / RFU MAGEB2 (11727129_at) / Fold change /veh MAGEB2 (11727129_at) / RFU TMEM200A (11744735_a_at) / Fold change /veh TMEM200A (11744735_a_at) / RFU CCDC152 (11751479_a_at) / Fold change /veh CCDC152 (11751479_a_at) / RFU FAM211A (11726209_a_at) / Fold change /veh FAM211A (11726209_a_at) / RFU RGS16 (11746705_a_at) / Fold change /veh RGS16 (11746705_a_at) / RFU VCAN (11755009_s_at) / Fold change /veh VCAN (11755009_s_at) / RFU RHOB (11743442_s_at) / Fold change /veh RHOB (11743442_s_at) / RFU RGS16 (11720943_a_at) / Fold change /veh RGS16 (11720943_a_at) / RFU RGS16 (11720944_at) / Fold change /veh RGS16 (11720944_at) / RFU, VPS4B / Fold change vs veh, VPS4B / RFU, CREB1 / Fold change vs veh, CREB1 / RFU, DNAJC13 / Fold change vs veh, DNAJC13 / RFU, GNAQ / Fold change vs veh, GNAQ / RFU, CDK5R1 / Fold change vs veh, CDK5R1 / RFU, ZRANB3 / Fold change vs veh, ZRANB3 / RFU, CUL4A / Fold change vs veh, CUL4A / RFU, CCNY / Fold change vs veh, CCNY / RFU, UFL1 / Fold change vs veh, UFL1 / RFU, COG3 / Fold change vs veh, COG3 / RFU, DIAPH2 / Fold change vs veh, DIAPH2 / RFU, SKA2 / Fold change vs veh, SKA2 / RFU, AFF3 / Fold change vs veh, AFF3 / RFU, LMF1 / Fold change vs veh, LMF1 / RFU, IPO11 / Fold change vs veh, IPO11 / RFU, DFFB / Fold change vs veh, DFFB / RFU, FOXP1 / Fold change vs veh, FOXP1 / RFU, CARD8 / Fold change vs veh, CARD8 / RFU, STRN3 / Fold change vs veh, STRN3 / RFU, ADK / Fold change vs veh, ADK / RFU, RASSF2 / Fold change vs veh, RASSF2 / RFU, WIPF1 / Fold change vs veh, WIPF1 / RFU, LARP1B / Fold change vs veh, LARP1B / RFU, RASA1 / Fold change vs veh, RASA1 / RFU, RB1 / Fold change vs veh, RB1 / RFU, PPFIA1 / Fold change vs veh, PPFIA1 / RFU, MAT2A / Fold change vs veh, MAT2A / RFU, CCT5 / Fold change vs veh, CCT5 / RFU, WDR92 / Fold change vs veh, WDR92 / RFU, CUX1 / Fold change vs veh, CUX1 / RFU, TTC7A / Fold change vs veh, TTC7A / RFU, TMEM135 / Fold change vs veh, TMEM135 / RFU, DEPTOR / Fold change vs veh, DEPTOR / RFU, CPM / Fold change vs veh, CPM / RFU, DNAJB6 / Fold change vs veh, DNAJB6 / RFU, CACNA2D3 / Fold change vs veh, CACNA2D3 / RFU, DTX4 / Fold change vs veh, DTX4 / RFU, TFCP2 / Fold change vs veh, TFCP2 / RFU, GMCL1 /// GMCL1P1 / Fold change vs veh, GMCL1 /// GMCL1P1 / RFU, AEBP2 / Fold change vs veh, AEBP2 / RFU, SNHG1 /// SNORD22 /// SNORD25 /// SNORD26 /// SNORD27 /// SNORD28 /// SNORD29 /// SNORD31 / Fold change vs veh, SNHG1 /// SNORD22 /// SNORD25 /// SNORD26 /// SNORD27 /// SNORD28 /// SNORD29 /// SNORD31 / Fold change (Aza/veh), C12orf56 (ProbeSet 11735607_a_at) / Fold change (ACY-1035/veh), C12orf56 (ProbeSet 11735607_a_at) / Fold change (Aza/veh), FGFR1OP (ProbeSet 11751329_s_at) / Fold change (ACY-1035/veh), FGFR1OP (ProbeSet 11751329_s_at) / Fold change (Aza/veh), VPS36 (ProbeSet 11739960_a_at) / Fold change (ACY-1035/veh), VPS36 (ProbeSet 11739960_a_at) / RFU SYPL1 (11715823_x_at) / Fold change /veh SYPL1 (11715823_x_at) / RFU IGFBP7 (11715501_s_at) / Fold change /veh IGFBP7 (11715501_s_at) / RFU REEP3 (11722064_at) / Fold change /veh REEP3 (11722064_at) / RFU IGLL1 (11728026_x_at) / Fold change /veh IGLL1 (11728026_x_at): dose or concentration left out as unconfirmed
Details: MV-4-11 cells, 48 hours

Nc1ccc(-c2cccs2)cc1NC(=O)c1ccc2c(c1)cc(C1CC1)n2CCN1CCOCC1 [ACY-1035]
RFU EBF3 (11725865_a_at): 63.04 RFU
